In article PMC12615753, “Glutathione as a taste modulator: molecular mechanisms of interaction with umami and sweet taste receptors” (Food Chemistry: Molecular Sciences, 2025):

Molecular target: T1, hTAS1R1 S306A/rTAS1R3 (Homo sapiens, UniProt Q7RTX1, S306A)
T1 construct: expressed in transfected cells; host or cells: HEK293T/17 (ATCC CRL-11268)
T1 sequence (Q7RTX1 21-841 S306A): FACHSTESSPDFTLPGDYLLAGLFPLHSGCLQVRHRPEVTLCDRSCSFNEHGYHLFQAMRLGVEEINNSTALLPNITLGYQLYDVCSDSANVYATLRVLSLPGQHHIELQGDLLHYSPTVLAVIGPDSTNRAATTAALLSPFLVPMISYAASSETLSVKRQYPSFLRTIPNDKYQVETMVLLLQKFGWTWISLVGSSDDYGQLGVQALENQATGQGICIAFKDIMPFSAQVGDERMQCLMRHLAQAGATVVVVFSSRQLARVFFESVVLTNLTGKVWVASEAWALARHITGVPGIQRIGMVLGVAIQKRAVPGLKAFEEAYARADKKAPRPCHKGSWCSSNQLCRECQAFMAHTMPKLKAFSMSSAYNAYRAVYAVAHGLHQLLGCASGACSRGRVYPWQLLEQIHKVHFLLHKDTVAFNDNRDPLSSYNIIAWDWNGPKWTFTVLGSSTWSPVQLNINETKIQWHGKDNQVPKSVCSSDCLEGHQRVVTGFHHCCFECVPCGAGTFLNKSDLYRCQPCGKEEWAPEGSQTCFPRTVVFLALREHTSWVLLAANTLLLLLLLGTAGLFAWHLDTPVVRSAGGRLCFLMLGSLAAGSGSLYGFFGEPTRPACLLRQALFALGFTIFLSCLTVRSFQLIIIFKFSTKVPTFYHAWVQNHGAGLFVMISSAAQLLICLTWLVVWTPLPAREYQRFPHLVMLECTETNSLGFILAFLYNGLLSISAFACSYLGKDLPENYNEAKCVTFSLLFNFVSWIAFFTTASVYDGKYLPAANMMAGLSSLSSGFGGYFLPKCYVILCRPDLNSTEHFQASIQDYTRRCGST
T1 sequence (Q923K1 21-858 partner): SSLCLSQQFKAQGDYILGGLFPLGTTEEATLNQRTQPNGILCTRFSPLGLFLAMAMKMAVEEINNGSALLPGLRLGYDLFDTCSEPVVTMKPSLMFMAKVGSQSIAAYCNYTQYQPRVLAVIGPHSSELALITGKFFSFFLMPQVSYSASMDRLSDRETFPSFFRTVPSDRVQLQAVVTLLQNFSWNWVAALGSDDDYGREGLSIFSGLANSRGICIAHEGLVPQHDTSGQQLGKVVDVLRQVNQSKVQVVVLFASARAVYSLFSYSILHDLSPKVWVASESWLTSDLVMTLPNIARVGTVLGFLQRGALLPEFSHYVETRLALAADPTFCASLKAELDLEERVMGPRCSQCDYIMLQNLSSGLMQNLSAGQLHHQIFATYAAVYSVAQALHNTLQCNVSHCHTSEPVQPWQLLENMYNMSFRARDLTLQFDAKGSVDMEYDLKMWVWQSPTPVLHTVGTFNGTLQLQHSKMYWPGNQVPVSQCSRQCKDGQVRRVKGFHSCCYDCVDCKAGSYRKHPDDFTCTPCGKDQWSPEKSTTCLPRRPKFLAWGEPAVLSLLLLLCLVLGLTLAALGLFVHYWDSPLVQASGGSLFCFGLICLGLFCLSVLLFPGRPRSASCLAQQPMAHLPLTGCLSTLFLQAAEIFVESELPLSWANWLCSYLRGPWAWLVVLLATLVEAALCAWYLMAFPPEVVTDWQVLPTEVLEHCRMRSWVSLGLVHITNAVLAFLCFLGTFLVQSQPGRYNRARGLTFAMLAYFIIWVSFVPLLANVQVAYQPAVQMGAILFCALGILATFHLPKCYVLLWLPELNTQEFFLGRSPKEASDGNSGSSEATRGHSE
Experiment: Calcium assay, hTAS1R1 mutant co-expressed with rTAS1R3
Assay type: cell-based, rat

SMILES	response to the agonist alone, vs WT (S306A)	EC50 [mM]	effect of the added compound (1 mM) on the response to L-Glu (S306A)
CCCC(CCC)NC(=O)c1ccc2c(c1)OCO2 [S807, N-(heptan-4-yl)benzo[d][1,3]dioxole-5-carboxamide, reference compound]	strongly affected	–	–
N[C@@H](CCC(=O)N[C@@H](CS)C(=O)NCC(=O)O)C(=O)O [GSH, γ-L-glutamyl-L-cysteinyl-glycine]	fully abolished	> 30	did not affect
